According to article PMC2858449 (Journal of immunology (Baltimore, Md. : 1950), 2009):
Like-named read-outs stand apart in the source and are kept apart here.

Experiments:
CD8^+ T cells [1] = assay: Intracellular cytokine staining for IFN-γ, IL-2 and TNF-α; assay type: cell-based, BALB/c mice; settings: HIV-1BaL Env-immunized mice (DNA-primed/rAd-boosted); peptide stimulation
CD8^+ T cells [2] = assay type: cell-based, BALB/c mice; settings: intracellular IFN-γ

Sequence: IGPGRAFYA [PA9]
- proportion of triple-positive (IFN-γ, IL-2, TNF-α) CD8^+ T cells (CD8^+ T cells [1]): 46%

Sequence: IGPGRAFYTT [PT10]
- recall response to peptide (in words) (CD8^+ T cells [2]; mice immunized with the HIV-1IIIB vaccine): failed to respond

Sequence: RGPGRAFVTI [P18I10, reference compound]
- recall response to peptide (in words) (CD8^+ T cells [2]; mice primed with HIV-1BaL DNA and boosted with rAd): did not respond
